Reference: PubChem BioAssay (NCI)
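Five compound concentrations were applied to cells in 96-well plates for 48 hours; endpoints were derived by simple linear interpolation of the resulting dose-response curve. TGI marks complete inhibition of growth.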

Key:
Experiment in all cases: NCI-60 cell line screen, 48 h
[1] = test system: EKVX NSCLC
[2] = test system: KM20L2 colon
[3] = test system: MOLT-4 leukemia
[4] = test system: TK-10 renal
[5] = test system: SN12C renal
[6] = test system: SK-OV-3 ovarian
[7] = test system: HOP-92 NSCLC
[8] = test system: COLO 205 colon
[9] = test system: XF 498 CNS
[10] = test system: K-562 leukemia
[11] = test system: MALME-3M melanoma
[12] = test system: SW-620 colon
[13] = test system: M14 melanoma
[14] = test system: SK-MEL-2 melanoma
[15] = test system: 786-0 renal
[16] = test system: SNB-19 CNS
[17] = test system: LOX IMVI melanoma
[18] = test system: CCRF-CEM leukemia
[19] = test system: A549 NSCLC
[20] = test system: DLD-1 colon
[21] = test system: NCI-H23 lung
[22] = test system: ACHN renal
[23] = test system: U251 CNS
[24] = test system: OVCAR-3 ovarian
[25] = test system: LXFL 529 NSCLC
[26] = test system: UACC-257 melanoma
[27] = test system: RXF 393 renal
[28] = test system: HL-60(TB) leukemia
[29] = test system: SK-MEL-28 melanoma
[30] = test system: HOP-62 NSCLC
[31] = test system: SF-268 CNS
[32] = test system: NCI-H460 lung
[33] = test system: A498 renal
[34] = test system: SK-MEL-5 melanoma
[35] = test system: NCI-H522 lung
[36] = test system: NCI-H226 lung
[37] = test system: HCC-2998 colon
[38] = test system: SF-295 CNS
[39] = test system: HOP-18 NSCLC
[40] = test system: SNB-75 CNS
[41] = test system: KM12 colon
[42] = test system: OVCAR-4 ovarian
[43] = test system: DMS 114 small cell lung
[44] = test system: OVCAR-5 ovarian
[45] = test system: M19-MEL melanoma
[46] = test system: OVCAR-8 ovarian
[47] = test system: CAKI-1 renal
[48] = test system: UO-31 renal
[49] = test system: HCT-116 colon
[50] = test system: SNB-78 CNS
[51] = test system: RPMI-8226 leukemia
[52] = test system: UACC-62 melanoma
[53] = test system: SF-539 CNS
[54] = test system: IGROV1 ovarian
[55] = test system: DMS 273 small cell lung
[56] = test system: SR leukemia
[57] = test system: HT29 colon
[58] = test system: HCT-15 colon

With `CC(=O)CC(=O)N(CCN(C(=O)CC(C)=O)c1ccccc1)c1ccccc1` the TGI [1] was > 100 µM, the TGI [2] was > 100 µM and the TGI [3] was > 100 µM. For the same compound, the TGI [4] was > 100 µM, the TGI [5] was > 100 µM and the TGI [6] was > 100 µM. The TGI [7] was > 100 µM, the TGI [8] was > 100 µM and the TGI [9] was > 100 µM. The TGI [10] was > 100 µM, the TGI [11] was > 100 µM and the TGI [12] was > 100 µM. For the same compound, the TGI [13] was > 100 µM, the TGI [14] was > 100 µM and the TGI [15] was > 100 µM. For the same compound, the TGI [16] was > 100 µM, the TGI [17] was > 100 µM and the TGI [18] was > 100 µM. For the same compound, the TGI [19] was > 100 µM, the TGI [20] was > 100 µM and the TGI [21] was > 100 µM. For the same compound, the TGI [22] was > 100 µM, the TGI [23] was > 100 µM and the TGI [24] was > 100 µM. The TGI [25] was > 100 µM, the TGI [26] was > 100 µM and the TGI [27] was > 100 µM. The TGI [28] was > 100 µM, the TGI [29] was > 100 µM and the TGI [30] was > 100 µM. For the same compound, the TGI [31] was > 100 µM, the TGI [32] was > 100 µM and the TGI [33] was > 100 µM. For the same compound, the TGI [34] was > 100 µM, the TGI [35] was > 100 µM and the TGI [36] was > 100 µM. The TGI [37] was > 100 µM, the TGI [38] was > 100 µM and the TGI [39] was > 100 µM. The TGI [40] was > 100 µM, the TGI [41] was > 100 µM and the TGI [42] was > 100 µM. The TGI [43] was > 100 µM, the TGI [44] was > 100 µM and the TGI [45] was > 100 µM. The TGI [46] was > 100 µM, the TGI [47] was > 100 µM and the TGI [48] was > 100 µM. For the same compound, the TGI [49] was > 100 µM, the TGI [50] was > 100 µM and the TGI [51] was > 100 µM. The TGI [52] was > 100 µM, the TGI [53] was > 100 µM and the TGI [54] was > 100 µM.
In the case of `COC1=CC(=O)c2ccc(C(C)C)cc2C1(C)C1=NC(C)(C)CO1` (centres undefined), the TGI [1] is reported as > 100 µM, the TGI [2] is reported as > 100 µM and the TGI [3] is reported as > 100 µM. For the same compound, the TGI [4] was > 100 µM, the TGI [5] was > 100 µM and the TGI [6] was > 100 µM. For the same compound, the TGI [55] was > 100 µM, the TGI [56] was > 100 µM and the TGI [7] was > 100 µM. The TGI [8] was > 100 µM, the TGI [9] was > 100 µM and the TGI [10] was > 100 µM. For the same compound, the TGI [11] was > 100 µM, the TGI [12] was > 100 µM and the TGI [13] was > 100 µM. The TGI [14] was > 100 µM, the TGI [15] was > 100 µM and the TGI [16] was > 100 µM. For the same compound, the TGI [18] was > 100 µM, the TGI [19] was > 100 µM and the TGI [20] was > 100 µM. For the same compound, the TGI [21] was > 100 µM, the TGI [22] was > 100 µM and the TGI [23] was > 100 µM. The TGI [24] was > 100 µM, the TGI [57] was > 100 µM and the TGI [25] was > 100 µM. The TGI [26] was > 100 µM, the TGI [27] was > 100 µM and the TGI [28] was > 100 µM. For the same compound, the TGI [29] was > 100 µM, the TGI [30] was > 100 µM and the TGI [31] was > 100 µM. The TGI [32] was > 100 µM, the TGI [34] was > 100 µM and the TGI [35] was > 100 µM. For the same compound, the TGI [36] was > 100 µM, the TGI [38] was > 100 µM and the TGI [39] was > 100 µM. The TGI [40] was > 100 µM, the TGI [41] was > 100 µM and the TGI [42] was > 100 µM. For the same compound, the TGI [43] was > 100 µM, the TGI [58] was > 100 µM and the TGI [45] was > 100 µM. For the same compound, the TGI [46] was > 100 µM, the TGI [47] was > 100 µM and the TGI [48] was > 100 µM. The TGI [49] was > 100 µM, the TGI [51] was > 100 µM and the TGI [52] was > 100 µM. The TGI [53] was > 100 µM and the TGI [54] was > 100 µM.
`C[C@]12CCC3c4ccc(OC(=O)c5ccccc5)cc4CC[C@H]3C1CC[C@@H]2OC(=O)C12OC1CCC2=O` (some centres undefined) gave a TGI [1] of 15 µM, a TGI [2] of 11.9 µM and a TGI [3] of 5.78 µM. For the same compound, the TGI [4] was 33.9 µM, the TGI [5] was 11.9 µM and the TGI [6] was 33.4 µM. For the same compound, the TGI [55] was 9.52 µM, the TGI [56] was 13.5 µM and the TGI [7] was 35.6 µM. For the same compound, the TGI [8] was 7.49 µM, the TGI [9] was 11.1 µM and the TGI [10] was 5.06 µM. The TGI [11] was 13.3 µM, the TGI [12] was 4.86 µM and the TGI [13] was 12 µM. It also gave a TGI [14] of 16 µM, a TGI [15] of 6.4 µM and a TGI [16] of 37 µM. For the same compound, the TGI [17] was 8.13 µM, the TGI [18] was 5.39 µM and the TGI [19] was 10.3 µM. The TGI [20] was 6.37 µM, the TGI [21] was 9.76 µM and the TGI [22] was 10.4 µM. For the same compound, the TGI [23] was 17.4 µM, the TGI [24] was 8.82 µM and the TGI [57] was 7.55 µM. It also gave a TGI [25] of 3.76 µM, a TGI [26] of 14.8 µM and a TGI [27] of 4.51 µM. For the same compound, the TGI [28] was 4.56 µM, the TGI [29] was 10.7 µM and the TGI [30] was 11.9 µM. It also gave a TGI [31] of 14.6 µM, a TGI [32] of 8.3 µM and a TGI [33] of 14.2 µM. The TGI [34] was 9.49 µM, the TGI [35] was 10.8 µM and the TGI [36] was 34.5 µM. The TGI [37] was > 71.9 µM, the TGI [38] was 28.7 µM and the TGI [39] was 10.7 µM. The TGI [40] was 19.1 µM, the TGI [41] was 13.6 µM and the TGI [42] was 10.6 µM. For the same compound, the TGI [43] was 6.7 µM, the TGI [44] was 21.4 µM and the TGI [58] was 31.3 µM. For the same compound, the TGI [45] was 11.3 µM, the TGI [46] was 31.3 µM and the TGI [48] was 11.9 µM. It also gave a TGI [49] of 7.18 µM, a TGI [50] of 14.1 µM and a TGI [51] of 14.8 µM. The TGI [52] was 38.4 µM, the TGI [53] was 4.31 µM and the TGI [54] was 9.22 µM.
